From PubChem BioAssay (NCI)
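Protocol summary: plate cells (96-well), add compound at 5 concentrations, incubate 48 h, interpolate endpoints linearly. The concentration for full growth arrest is given as TGI.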

Key:
Experiment in all cases: NCI-60 cell line screen, 48 h
[1] = test system: 786-0 renal
[2] = test system: A498 renal
[3] = test system: A549 NSCLC
[4] = test system: ACHN renal
[5] = test system: BT-549 breast
[6] = test system: CAKI-1 renal
[7] = test system: CCRF-CEM leukemia
[8] = test system: COLO 205 colon
[9] = test system: DU-145 prostate
[10] = test system: EKVX NSCLC
[11] = test system: HCC-2998 colon
[12] = test system: HCT-116 colon
[13] = test system: HCT-15 colon
[14] = test system: HL-60(TB) leukemia
[15] = test system: HOP-62 NSCLC
[16] = test system: HOP-92 NSCLC
[17] = test system: HS 578T breast
[18] = test system: HT29 colon
[19] = test system: IGROV1 ovarian
[20] = test system: K-562 leukemia
[21] = test system: KM12 colon
[22] = test system: LOX IMVI melanoma
[23] = test system: M14 melanoma
[24] = test system: MCF7 breast
[25] = test system: MDA-MB-231 breast
[26] = test system: MDA-MB-435
[27] = test system: MDA-N
[28] = test system: MOLT-4 leukemia
[29] = test system: NCI-H226 lung
[30] = test system: NCI-H23 lung
[31] = test system: NCI-H460 lung
[32] = test system: NCI-H522 lung
[33] = test system: NCI/ADR-RES ovarian
[34] = test system: OVCAR-3 ovarian
[35] = test system: OVCAR-4 ovarian
[36] = test system: OVCAR-5 ovarian
[37] = test system: OVCAR-8 ovarian
[38] = test system: PC-3 prostate
[39] = test system: RXF 393 renal
[40] = test system: SF-268 CNS
[41] = test system: SF-295 CNS
[42] = test system: SF-539 CNS
[43] = test system: SK-MEL-2 melanoma
[44] = test system: SK-MEL-28 melanoma
[45] = test system: SK-MEL-5 melanoma
[46] = test system: SK-OV-3 ovarian
[47] = test system: SN12C renal
[48] = test system: SNB-19 CNS
[49] = test system: SW-620 colon
[50] = test system: T-47D breast
[51] = test system: TK-10 renal
[52] = test system: U251 CNS
[53] = test system: UACC-257 melanoma
[54] = test system: UACC-62 melanoma
[55] = test system: UO-31 renal
[56] = test system: MALME-3M melanoma
[57] = test system: RPMI-8226 leukemia
[58] = test system: SR leukemia

## O=P1(O)c2ccccc2CS(=O)(=O)Cc2ccccc21
[1]
  TGI: > 100 µM
[2]
  TGI: > 100 µM
[3]
  TGI: > 100 µM
[4]
  TGI: > 100 µM
[5]
  TGI: > 100 µM
[6]
  TGI: > 100 µM
[7]
  TGI: > 100 µM
[8]
  TGI: > 100 µM
[9]
  TGI: > 100 µM
[10]
  TGI: > 100 µM
[11]
  TGI: > 100 µM
[12]
  TGI: > 100 µM
[13]
  TGI: > 100 µM
[14]
  TGI: > 100 µM
[15]
  TGI: > 100 µM
[16]
  TGI: > 100 µM
[17]
  TGI: > 100 µM
[18]
  TGI: > 100 µM
[19]
  TGI: > 100 µM
[20]
  TGI: > 100 µM
[21]
  TGI: > 100 µM
[22]
  TGI: > 100 µM
[23]
  TGI: > 100 µM
[24]
  TGI: > 100 µM
[25]
  TGI: > 100 µM
[26]
  TGI: > 100 µM
[27]
  TGI: > 100 µM
[28]
  TGI: > 100 µM
[29]
  TGI: > 100 µM
[30]
  TGI: > 100 µM
[31]
  TGI: > 100 µM
[32]
  TGI: > 100 µM
[33]
  TGI: > 100 µM
[34]
  TGI: > 100 µM
[35]
  TGI: > 100 µM
[36]
  TGI: > 100 µM
[37]
  TGI: > 100 µM
[38]
  TGI: > 100 µM
[39]
  TGI: > 100 µM
[40]
  TGI: > 100 µM
[41]
  TGI: > 100 µM
[42]
  TGI: > 100 µM
[43]
  TGI: > 100 µM
[44]
  TGI: > 100 µM
[45]
  TGI: > 100 µM
[46]
  TGI: > 100 µM
[47]
  TGI: > 100 µM
[48]
  TGI: > 100 µM
[49]
  TGI: > 100 µM
[50]
  TGI: > 100 µM
[51]
  TGI: > 100 µM
[52]
  TGI: > 100 µM
[53]
  TGI: > 100 µM
[54]
  TGI: > 100 µM
[55]
  TGI: > 100 µM

## O=C(Nc1ccc(F)cc1)c1cc2ccc(O)cc2oc1=Nc1ccccc1F
[1]
  TGI: > 100 µM
[2]
  TGI: > 100 µM
[4]
  TGI: > 100 µM
[5]
  TGI: 43.5 µM
[6]
  TGI: > 100 µM
[7]
  TGI: > 100 µM
[8]
  TGI: > 100 µM
[9]
  TGI: > 100 µM
[10]
  TGI: 40.8 µM
[11]
  TGI: > 100 µM
[12]
  TGI: > 100 µM
[13]
  TGI: 59 µM
[14]
  TGI: 69.5 µM
[15]
  TGI: > 100 µM
[17]
  TGI: > 100 µM
[18]
  TGI: > 100 µM
[19]
  TGI: 36.1 µM
[20]
  TGI: > 100 µM
[21]
  TGI: > 100 µM
[22]
  TGI: 49.6 µM
[56]
  TGI: > 100 µM
[24]
  TGI: > 100 µM
[26]
  TGI: > 100 µM
[27]
  TGI: > 100 µM
[28]
  TGI: > 100 µM
[30]
  TGI: 13.6 µM
[31]
  TGI: > 100 µM
[32]
  TGI: 84 µM
[33]
  TGI: 51.8 µM
[34]
  TGI: > 100 µM
[35]
  TGI: > 100 µM
[36]
  TGI: > 100 µM
[37]
  TGI: 36.7 µM
[38]
  TGI: > 100 µM
[57]
  TGI: > 100 µM
[40]
  TGI: > 100 µM
[41]
  TGI: > 100 µM
[42]
  TGI: > 100 µM
[43]
  TGI: > 100 µM
[44]
  TGI: > 100 µM
[45]
  TGI: 35.2 µM
[46]
  TGI: 67.1 µM
[47]
  TGI: > 100 µM
[58]
  TGI: > 100 µM
[49]
  TGI: > 100 µM
[50]
  TGI: > 100 µM
[52]
  TGI: 97.5 µM
[53]
  TGI: > 100 µM
[54]
  TGI: > 100 µM
